The values below come from patent US10428111B2, “Cancer targeting by anti-EGFR peptides and applications thereof” (priority 2015, dated 2019).

For data set [1], the system named is TUBO (HER2-overexpressing cells). Put plainly: MTT cytotoxicity study. Format: cell-based, mice. As to conditions: then 48 hours, mean ± SD, n = 3. Here is the method:
(§1) The anti-proliferative effects of liposomal preparations containing DOX were assessed using MTT assay. SK-BR-3, TUBO, and MDA-MB-231 cells were seeded at 7000, 10,000, 2500 cells/well in 96 well plates. After an overnight incubation, the medium was replaced with FCS free medium containing 1:2 serial dilutions of liposomal DOX or free DOX. After 3 hours and 6 hours' incubation times at 37° C., cells were washed with pre-warmed complete culture media and re-incubated further for 48 hours at 37° C. in their complete culture medium. Then, the medium was replaced with 100 μL of freshly prepared MTT (10% v/v, 5 mg/mL) and FCS free culture medium. Finally, after 4 hours of incubation at 37° C., the absorbance at 545 nm was recorded. Relative cell death (R) was calculated as follows: R=1−[(Atest−Ablank)/(Acontrol−Ablank)] Equation (1)
(§2) In the above Equation (1), Atest is the absorbance values of the cells treated with the test solutions and Acontrol is the absorbance values of the culture medium (negative control). Ablank is the absorbance of MTT solution added in cell free wells. The IC50 was then calculated using CalcuSyn version 2 software (BIOSOFT, UK).

In data set [2] the test system is TUBO breast carcinoma tumor. The experiment in a line: Chemotherapy study in tumor-bearing mice. As to conditions: for CR (complete regression) / TFS (tumor free survivor): number of animals of n = 4-5; for TGD (Tumor growth delay): versus dextrose 5% control.
Method: Initially, on day 0, female BALB/c mice aged 4-6 weeks were given subcutaneous injections of TUBO tumor cells (5×10^5 cells per mouse) in the right flank. On day 11, post-tumoring mice with palpable tumor received 0.2 mL via a single tail vein injection of either dextrose 5% solution as negative control or doxorubicin encapsulated in liposomes (15 mg/kg). Mice were weighed and tumor sizes were monitored during the experimental period. The tumor volume was estimated by measuring three orthogonal diameters (a, b, and c) with calipers; the volume was calculated as (a×b×c)×0.5 mm^3. Tumors that were just palpable were defined as 1 mm^3. To survival study, the mice were monitored for up to 120 days post-tumoring or until one of the following conditions for euthanasia was met: (1) their body weight dropped below 20% of their initial mass; (2) their tumor was greater than 2.0 cm across in any dimension; (3) they became lethargic or sick and unable to feed; or (4) they were found dead. The time to reach the endpoint (TTE) for each mouse was calculated from the equation of the line obtained by exponential regression of the tumor growth curve. Subsequently, the percent of tumor growth delay (% TGD) were calculated based on the difference between the mean TTE of treatment group (T) and theme an TTE of the control group (C) (% TGD=[(T−C)/C]×100). […] In a partial regression response, the tumor volume is less than or equal to 50% of its day 1 volume for three consecutive measurements during the course of the study, and greater than or equal to 13.5 mm^3 for one or more of these three measurements. In a complete regression response, the tumor volume is less than 13.5 mm^3 for three consecutive measurements during the course of the study. An animal with a complete regression response at the end of the study was additionally classified as a tumor-free survivor.
The investigation to get the above-mentioned results took place in female BALB/c mice earing TUBO breast carcinoma tumor after administration of a single dose of 15 mg/kg liposome loaded by doxorubicin (DOX) or dextrose 5% on day 11 after tumor inoculation.
The subject of data set [3] is SKBR3 (HER2-overexpressing cells). Put plainly: MTT cytotoxicity study. Format: cell-based, human. The note with it: then 48 hours, mean ± SD, n = 3. The procedure: as §1, §2
Data set [4] in a line: Bio-distribution study (DOX in plasma, tumor and tissues). The note with it: 15 mg/kg as DOX; after 3 hours. Format: in vivo, BALB/c mice. Here is the method:
Two weeks after tumor inoculation, when the tumors were approximately 5 mm wide, mice (3 per group) were injected via the tail vain with either 15 mg/kg of doxorubicin as Caelyx® or targeted liposomes. Control mice received 200 μL of dextrose 5%. Blood samples were collected via retro orbital bleeding (approx. 0.5 mL) 3, 6, and 12 hours after the dosing. After 24 hours, the group was sacrificed for tissue collection. Blood samples were collected by heart puncture, and the whole tumor, kidneys, spleen, heart, lungs as well as a portion of liver and muscle were dissected, weighted and placed in a 2 mL Polypropylene Microvials containing 1 mL of acidified isopropanol and zirconia bead sand homogenized by Mini-Beadbeater-1. The blood was allowed to coagulate at 4° C. and then centrifuged for 10 min at 14,000 rpm. Then, serum was collected and an adequate volume was diluted in 1 mL acidified isopropanol. The homogenized tissue samples and the sera were stored overnight at 4° C. to extract the drug. The samples were then centrifuged and the supernatant was assayed for DOX concentration spectrofluorimetrically (Ex:470 nm, Em:590 nm). The calibration curve was prepared using serial dilutions of Doxil the tissue and sera extracts of the control mice. […]

In data set [5] the test system is MDA-MB-231 (HER2-Low expressing cells). The experiment in a line: MTT cytotoxicity study. It is filed as cell-based. As to conditions: then 48 hours, mean ± SD, n = 3. Here is the method: as §1, §2
[6] abbreviates: Table 3B (719W), liposomes 15 mg/kg, DOX 10 mg/kg.

SMILES strings stand for the structures. Where two headings read alike, the source gives them in different places.

Usually IC50 stands for the concentration at which inhibition is half-maximal. As to `COc1cccc2c1C(=O)c1c(O)c3c(c(O)c1C2=O)C[C@@](O)(C(=O)CO)C[C@@H]3O[C@H]1C[C@H](N)[C@H](O)[C@H](C)O1` [DOX, doxorubicin], the IC50 amounted to 150 ± 70 nM in data set [1] (Table 2A (420W), 3 hours incubation, read-out: IC50 TUBO 3 hours); 90 ± 10 nM in data set [1] (Table 2A (420W), 6 hours incubation, read-out: IC50 TUBO 6 hours); 150 ± 10 nM in data set [1] (Table 2B (719W), 3 h incubation, read-out: IC50 TUBO 3 h); 90 ± 30 nM in data set [1] (Table 2B (719W), 6 h incubation, read-out: IC50 TUBO 6 h); 620 ± 20 nM in data set [3] (Table 2A (420W), 3 hours incubation, read-out: IC50 SKBR3 3 hours); 390 ± 50 nM in data set [3] (Table 2A (420W), 6 hours incubation, read-out: IC50 SKBR3 6 hours). Further, the concentration for half-maximal inhibition (IC50) is 560 ± 20 nM in data set [3] (Table 2B (719W), 3 h incubation, read-out: IC50 SKBR3 3 h); 240 ± 10 nM in data set [3] (Table 2B (719W), 6 h incubation, read-out: IC50 SKBR3 6 h); 600 ± 50 nM in data set [5] (Table 2A (420W), 3 hours incubation, read-out: IC50 MDA-MB-231 3 hours); 260 ± 10 nM in data set [5] (Table 2A (420W), 6 hours incubation, read-out: IC50 MDA-MB-231 6 hours); 600 ± 90 nM in data set [5] (Table 2B (719W), 3 h incubation, read-out: IC50 MDA-MB-231 3 h); 260 ± 40 nM in data set [5] (Table 2B (719W), 6 h incubation, read-out: IC50 MDA-MB-231 6 h). For the same compound, the “CR (complete regression)” value in data set [2] (Table 3A (420W)) and in data set [2] (setting [6]) was 0 throughout. The “TFS (tumor free survivor)” value in data set [2] (Table 3A (420W)) and in data set [2] (setting [6]) was 0 throughout. Besides, the “TTE (time to reach the end point)” value in data set [2] (Table 3A (420W), single i.v. dose on day 11, monitored up to 120 days) was found to be 70.4 days; in data set [2] (setting [6]), 70.4 days. Further, the “MST (Median survival Time)” value in data set [2] (Table 3A (420W), single i.v. dose on day 11 after tumor inoculation, monitored up to 120 days) was found to be 69.2 days; in data set [2] (Table 3B (719W), single i.v. dose, liposomes 15 mg/kg, DOX 10 mg/kg, up to 120 days), 69.2 days. For the same compound, the “TGD (Tumor growth delay)” value in data set [2] (Table 3A (420W)) and in data set [2] (setting [6]) was 18% each time. Moreover, the “plasma concentration of DOX after intravenous injection” value in data set [4] is reported as “below the detection limit”.
